# Experimental data taken from PMC7069920, “Schizandrin A exhibits potent anticancer activity in colorectal cancer cells by inhibiting heat shock factor 1” (Bioscience Reports, 2020).
# Tests used:
# HSF1 [1] = details: read-out: IC50, heat shock-induced HSF1 reporter activity; cited from earlier work
# CCD 841 CoN cells = assay: MTS cell viability assay, normal colon epithelial cells; type: cell-based, human; details: 72 h
# HSF1 [2] = assay: HSE luciferase reporter assay (heat shock-induced HSF1 reporter activity); type: cell-based; details: Homo sapiens, RKO cells, 30 min pretreatment, 43°C 1 h, 5 h recovery
# Protocol: The double-strand DNA containing four copies of the palindromic HSE (5′-[…]-3′) was synthesized and inserted into the multiple cloning site (MCS) of pGL3-basic vector (Promega, U.S.A.), which was named as p(HSE)4-basic vector. Then, the Dual-Glo® Luciferase Assay System (Promega, U.S.A.) was used to measure the activity of the reporter. Briefly, RKO cells (3 × 10^5 cells/well) were seeded in six-well plates. After being cultured overnight, cells were co-transfected with 2 μg of p(HSE)4-basic vector and 0.2 μg of pRL-TK using X-treme GENE HP DNA Transfection Reagent (Roche, U.S.A.) according to the manufacturer’s protocol. The Renilla luciferase gene was transfected as an internal control vector. Twenty-four hours after transfection, cells were trypsinized and seeded in 12-well plates at a density of 8 × 10^4 cells per well. The next day, cells were incubated with Sch A at different concentrations for 30 min, exposed to heat shock at 43°C for 60 min, and then incubated further at 37°C for 5 h. Firefly and Renilla luciferase activities were measured using a dual-light reporter gene assay kit (Promega) with a Synergy 2 BioTek plate reader (BioTek, U.S.A.).
# DLD-1 cells = assay: MTS cell viability assay, DLD-1; type: cell-based; details: Homo sapiens, 72 h, read-out: IC50, antiproliferative effect
# Protocol: (§1) The Cell Titer 96 Aqueous Non-Radioactive Cell Proliferation Assay Kit (Promega, U.S.A.) was utilized to measure cell viability. RKO, DLD-1 cells (5 × 10^3 cells/well) and SW620, SW480 (6 × 10^3 cells/well) were seeded in 96-well plates overnight. This was followed by the removal of the culture medium and the exposure of all cells to different concentrations of chemical treatment for 72 h. The absorbance value of each well was determined by a microplate reader at 490 nm. Each experiment was repeated for three times.
# [3] = tested on: p-Rb (S807/811), Cyclin D1, Cdk4, Cdk6; assay: Western blot of cell cycle-related proteins; type: cell-based, human; details: RKO, 50-150 μM, 24 h
# Protocol: (§2) After 24 h of treatment as indicated, the cells were washed once with PBS. The total proteins were extracted with RIPA buffer supplemented with protease inhibitors (Roche, U.S.A.) and quantified with BSA standard methodology. Equal amounts of proteins were separated by SDS/PAGE and transferred to a PVDF membrane. After blocking with 5% non-fat dry milk in TBST for 1.5 h, the membrane was incubated with a specific primary antibody diluted 1:1000 overnight at 4°C, and the secondary antibody was then conjugated with HRP (1:5000, Santa Cruz, CA) at room temperature for 2 h. The immunoreactive bands were visualized with enhanced chemiluminescence liquid (Millipore, Billerica, MA, U.S.A.) in Amersham Imager 600 system (GE Healthcare Life Sciences, Shanghai, China).
# RKO cells [4] = assay: Cell cycle analysis by flow cytometry (PI); type: cell-based, human
# Protocol: Cells (3 × 10^5 cells/well) were seeded in six-well plates and allowed to adhere overnight. The next day, the cells were treated with different compounds as indicated for 24 h. The cells were then trypsinized, washed, and fixed in 75% ice-cold ethanol at 4°C overnight. After centrifugation, the pellets were washed with cold PBS, suspended in 500 μl PBS with […] PI and incubated in the dark at 4°C for 30 min. Then cell suspension was tested using an FACS Calibur instrument (Becton Dickinson FACSCalibor, BD Biosciences, Franklin Lakes, NJ, U.S.A.).
# [5] = molecular target: T1, human recombinant HSF1 full-length protein (Homo sapiens, UniProt Q00613); assay: SPR direct binding to HSF1
# T1 sequence (Q00613 1-529): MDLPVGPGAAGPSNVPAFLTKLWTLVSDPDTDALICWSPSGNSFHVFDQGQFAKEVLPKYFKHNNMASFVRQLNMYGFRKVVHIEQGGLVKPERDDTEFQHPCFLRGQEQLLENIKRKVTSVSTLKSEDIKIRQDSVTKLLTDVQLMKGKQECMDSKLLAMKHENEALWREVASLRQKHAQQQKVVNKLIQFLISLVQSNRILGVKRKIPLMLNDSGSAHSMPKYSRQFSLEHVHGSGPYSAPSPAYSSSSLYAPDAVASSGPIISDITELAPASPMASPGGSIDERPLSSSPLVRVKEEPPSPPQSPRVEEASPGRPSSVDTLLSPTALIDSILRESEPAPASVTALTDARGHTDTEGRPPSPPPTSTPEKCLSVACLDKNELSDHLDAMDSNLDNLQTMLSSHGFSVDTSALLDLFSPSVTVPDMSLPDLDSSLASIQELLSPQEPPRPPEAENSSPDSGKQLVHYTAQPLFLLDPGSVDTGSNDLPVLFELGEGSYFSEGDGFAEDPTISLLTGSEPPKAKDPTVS
# Protocol: SPR experiments were performed on a ProteOn XPR36 Protein Interaction Array system (Bio-Rad Laboratories, Hercules, CA, U.S.A.). Briefly, HSF1 solution in PBST (5 mM, pH 7.4) at a concentration of 1 mg/ml was diluted to 30 μg/ml with sodium acetate buffer (pH 4.5). The chip was activated with EDC/NHS (10 μl/min for 600 s). Then, HSF1 was loaded (5 μl/min for 400 s) and immobilized covalently. Approximately 7000 RU of HSF1 was immobilized on the chip. Any excess of unbound HSF1 was removed by flowing PBS solution (5 mM, pH 7.4, with 5%, w/v, DMSO). […] Five concentrations were injected simultaneously at a flow rate of 30 μM/min for 120 s of association phase, followed with 120 s of dissociation phase at 25°C. The final graph was obtained by subtracting blank sensorgrams from the duplex or quadruplex sensorgrams. Data were analyzed using the ProteOn manager software.
# [6] = statement in discussion, no experiment and reference not given; cited from earlier work
# [7] = tested on: Cleaved-PARP, Cleaved-caspase-3, Bcl-2; assay: Western blot of apoptosis-related proteins; type: cell-based, human; details: RKO, 50-150 μM, 24 h
# Protocol: Flow cytometer analysis and Western blotting were used to detect cell apoptosis. For flow cytometer analysis of apoptosis, cells were treated […] for 24 h, washed twice with PBS, and re-suspended in 100 μl of 1 × binding buffer. Five microliters of FITC Annexin V and propidium iodide (PI) (556547, BD Biosciences, U.S.A.) were added to the cell suspension and then incubated at room temperature for 15 min. After dilution with 400 μl binding buffer, the samples were analyzed using an ACS Calibur flow cytometer (BD). For apoptosis using Western blotting, cleaved caspase 3, cleavage of PARP, Bcl-2, and BCl-xL were analyzed.
# as §2
# SW620 cells = assay: MTS cell viability assay, SW620; type: cell-based; details: Homo sapiens, SW-620, 72 h, read-out: IC50 (50% inhibition), antiproliferative effect
# Protocol: as §1
# RKO and SW620 cells = assay: Clonogenic (colony-forming) assay; type: cell-based, human; details: 75 and 150 μM for 24 h, colonies stained on 14th day, vs negative control
# Protocol: RKO cells were seeded at a density of 800 cells per well in six-well cell culture plate overnight. Then Sch A was mixed into the culture medium and added at different concentrations. After 24 h, the culture medium was replaced with fresh culture medium, and was allowed to grow for an additional 14 ays. Following this, the medium was removed from the colonies, which were then washed twice with PBS, fixed with methanol for 15 min, stained with Crystal Violet for 15 min, and finally washed with running water for 5 min. Colonies containing more than 50 cells were counted, and then photographed for visualization.
# Furthermore, colony-forming assays were performed to assess the long-term inhibitory effects of Sch A treatment. After 24 h of treatment with Sch A (75 and 150 μM), the cell culture was replaced with fresh medium every 3 days. On the 14th day, cell colonies were stained with 0.1% Crystal Violet and photographed.
# Hsp70 and Hsp27 = assay: Western blot of HSF1 downstream proteins; type: cell-based, human; details: RKO, 50-150 μM, heat shock or 24 h at normal temperature
# Protocol: as §2
# SW480 cells = assay: MTS cell viability assay, SW480; type: cell-based; details: Homo sapiens, 72 h, read-out: IC50 (50% inhibition), antiproliferative effect
# Protocol: as §1
# [8] = tested on: HSP70, HSP27 and HSP90 mRNA; assay: qRT-PCR of HSF1 target genes after heat shock; type: cell-based, human; details: RKO, 50-150 μM, heat shock 43°C 1 h, recovery 37°C 0.5 h
# Protocol: Total RNA was extracted with TRIzol reagent (Invitrogen) following the manufacturer’s protocol. RNA concentrations were quantified by NanoDrop 2000 (Nanodrop, U.S.A.). Two micrograms RNA was reverse transcribed with High-Capacity cDNA Reverse Transcription Kit (Applied Biosystems, U.S.A.). Quantitative real-time PCR was performed to determine the mRNA expression level using SYBR Green Master Mix Kit and Light Cycler 480 II system (Roche, Shanghai, China).
# Relative quantities of HSP70, HSP90 and HSP27 mRNA were normalized against ACTB mRNA.
# RKO cells [9] = assay: MTS cell viability assay, RKO; type: cell-based; details: Homo sapiens, 72 h, read-out: IC50, antiproliferative effect
# Protocol: as §1
smiles,measurement,setting,value
CNc1ccc([N+](=O)[O-])c(Nc2ccc3[nH]ncc3c2)n1 [KRIBB11],IC50,HSF1 [1],1.2 µM
"COc1cc2c(c(OC)c1OC)-c1c(cc(OC)c(OC)c1OC)C[C@H](C)[C@H](C)C2 [Sch A, Schizandrin A]",effect on cell viability,"CCD 841 CoN cells; CCD 841 CoN cells, up to 150 μM",little effect on the cell viability
same,IC50,"CCD 841 CoN cells; Homo sapiens, CCD 841 CoN normal colon epithelial cells, MTS, read-out: IC50, antiproliferative effect",> 150 µM
same,inhibition at 100 µM,HSF1 [2],~50%
same,IC50,DLD-1 cells,> 150 µM
same,"expression of cell cycle-related proteins (p-Rb, Cyclin D1, Cdk4, Cdk6)",[3],reducing the expression of cell cycle-related proteins
same,Dip G2,"RKO cells [4]; 50 μM, 24 h (DMSO 15.92 %)",14.49%
same,Dip S,"RKO cells [4]; 50 μM, 24 h (DMSO 38.03 %)",30.80%
same,Dip G1,"RKO cells [4]; 50 μM, 24 h (DMSO 46.05 %)",54.71%
same,Dip G1,"RKO cells [4]; 75 μM, 24 h",62.16%
same,Dip G2,"RKO cells [4]; 75 μM, 24 h",10.56%
same,Dip S,"RKO cells [4]; 75 μM, 24 h",27.28%
same,Dip G1,"RKO cells [4]; 100 μM, 24 h",72.26%
same,Dip G2,"RKO cells [4]; 100 μM, 24 h",7.82%
same,Dip S,"RKO cells [4]; 100 μM, 24 h",19.93%
same,Dip G1,"RKO cells [4]; 150 μM, 24 h",82.94%
same,Dip G2,"RKO cells [4]; 150 μM, 24 h",8.53%
same,Dip S,"RKO cells [4]; 150 μM, 24 h",8.53%
same,Kd,[5],106 µM
same,kon,"[5]; pH 7.4, read-out: Ka (association constant, SPR)",26900 M⁻¹ s⁻¹
same,water solubility,[6],low water solubility
same,expression of anti-apoptotic protein Bcl-2,[7],decreased
same,expression of pro-apoptotic molecules (Cleaved-PARP and Cleaved-caspase-3),[7],significantly elevated
same,IC50,SW620 cells,85.7 µM
same,effect on clone formation,RKO and SW620 cells,stronger inhibitory effect on cancer cell growth in a dose-dependent manner
same,HSF1-regulated downstream signaling induced by heat shock and basal expression of Hsp 70 and Hsp 27,Hsp70 and Hsp27,effectively down-regulated
same,IC50,SW480 cells,87.6 µM
same,"transcription of HSF1 target genes (HSP70, HSP27, HSP90 mRNA)",[8],effectively blocked the transcription of HSF1 target genes
same,IC50,RKO cells [9],68.7 µM
